Patent US20020182717A1, “Method of preparing supported lipid film membranes and use thereof” (Biacore AB, priority 2001, published 2002)

Target: T1, rhodopsin (Bos taurus, UniProt P02699)
T1 construct: Gift: Dr. Andreas von Usedom, Institute for Medical Physics and Biophysics, Humboldt University, Berlin
Assay: Assay for rhodopsin functionality (transducin dissociation on illumination, SPR, BIACORE X)
Format: biochemical
Details: 10 μM 9-cis-retinal, after extended illumination and over night incubation
Description: In order to judge if the rhodopsin has a native and functional conformation after immobilization and supplementation with lipids as described in steps A and B above, its signaling capacity was assayed. When rhodopsin is activated by light, it transmits its signal by activating transducin. Activated transducin dissociates from the membrane under consumption of GTP (Heyse, S., et al., Biochemistry (1998) 37:507-522).
Measurements of transducin dissociation by activated rhodopsin were performed in a BIACORE X instrument into which an optical fiber had been inserted for illumination of the flow cells. The instrument temperature was set to 20° C. All the operations were performed under safe red light. […]
This solution was injected at 5 μl/min over both the rhodopsin and the reference flow cells in the manual mode. Upon injection, transducin bound readily to both the rhodopsin-POPC surface and the POPC reference surface, but when the injection was finished it dissociated very rapidly from the surface into the mobile phase of running buffer. […] The activation of the receptor was recorded as a surface mass decrease caused by dissociation of the activated transducin from the membrane. […]

T1 sequence (P02699 whole entry): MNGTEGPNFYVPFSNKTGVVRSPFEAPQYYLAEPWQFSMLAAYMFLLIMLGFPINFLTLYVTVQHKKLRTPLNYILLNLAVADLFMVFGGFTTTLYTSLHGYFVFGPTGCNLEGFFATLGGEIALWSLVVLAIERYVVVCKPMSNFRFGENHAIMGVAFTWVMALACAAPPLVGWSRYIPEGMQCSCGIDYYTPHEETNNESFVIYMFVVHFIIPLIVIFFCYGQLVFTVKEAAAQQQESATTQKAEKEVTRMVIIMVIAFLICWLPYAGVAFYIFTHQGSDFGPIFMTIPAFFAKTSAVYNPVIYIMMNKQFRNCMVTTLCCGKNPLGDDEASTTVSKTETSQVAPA

## CC1=C(/C=C/C(C)=C\C=C\C(C)=C\C=O)C(C)(C)CCC1 [9-cis-retinal]
  signalling capacity of exhausted reconstituted rhodopsin after ligand injection: recovery of the signalling capacity
